Measurements as given in PubChem BioAssay AID248 (DTP/NCI, 2004).
Where “and” joins values, the source holds several entries; their conditions need not be identical. Equal entries are not always repeated. Inconclusive results and toxic doses are left out. No stated cut-off is given here; in the data, active means T/C of 150% or more; inactive means T/C below 125%.

Tested on: L1210 leukemia ip in BDF1 mice, survival T/C
Assay: NCI In Vivo Anticancer Drug Screen. Data for tumor model L1210 Leukemia (intraperitoneal) in B6D2F1 (BDF1) mice
Conditions: endpoint: mean survival time, higher = longer survival
Summary of the method: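 Tumor cells were implanted, animals were treated, and survival was followed. The result divides the treated measurement by the vehicle-control measurement.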

[1] = dose: 100.0 mg/kg/injection, schedule: Q01DX001 (ip), vehicle: saline
[2] = dose: 200.0 mg/kg/injection, schedule: Q01DX001 (ip), vehicle: saline
[3] = dose: 400.0 mg/kg/injection, schedule: Q01DX001 (ip), vehicle: saline
[4] = dose: 100.0 mg/kg/injection, schedule: Q04DX002 (ip), vehicle: Klucel (hydroxypropylcellulose) (HPC)
[5] = dose: 200.0 mg/kg/injection, schedule: Q04DX002 (ip), vehicle: Klucel (hydroxypropylcellulose) (HPC)
[6] = dose: 400.0 mg/kg/injection, schedule: Q04DX002 (ip), vehicle: Klucel (hydroxypropylcellulose) (HPC)
[7] = dose: 100.0 mg/kg/injection, schedule: Q01DX009 (ip), vehicle: Klucel (hydroxypropylcellulose) (HPC)
[8] = dose: 200.0 mg/kg/injection, schedule: Q01DX009 (ip), vehicle: Klucel (hydroxypropylcellulose) (HPC)
[9] = dose: 75.0 mg/kg/injection, schedule: Q01DX001 (ip), vehicle: saline
[10] = dose: 150.0 mg/kg/injection, schedule: Q01DX001 (ip), vehicle: saline
[11] = dose: 400.0 mg/kg/injection, schedule: Q01DX009 (ip), vehicle: Klucel (hydroxypropylcellulose) (HPC)
[12] = dose: 50.0 mg/kg/injection, schedule: Q01DX009 (ip), vehicle: saline
[13] = dose: 100.0 mg/kg/injection, schedule: Q04DX003 (ip), vehicle: Klucel (hydroxypropylcellulose) (HPC)
[14] = dose: 200.0 mg/kg/injection, schedule: Q04DX003 (ip), vehicle: Klucel (hydroxypropylcellulose) (HPC)
[15] = dose: 400.0 mg/kg/injection, schedule: Q04DX003 (ip), vehicle: Klucel (hydroxypropylcellulose) (HPC)
[16] = dose: 100.0 mg/kg/injection, schedule: Q01DX009 (ip), vehicle: saline with Tween-80
[17] = dose: 100.0 mg/kg/injection, schedule: Q04DX003 (ip), vehicle: saline with Tween-80
[18] = dose: 200.0 mg/kg/injection, schedule: Q01DX009 (ip), vehicle: saline with Tween-80
[19] = dose: 200.0 mg/kg/injection, schedule: Q04DX003 (ip), vehicle: saline with Tween-80
[20] = dose: 100.0 mg/kg/injection, schedule: Q01DX001 (ip), vehicle: carboxymethylcellulose (CMC)
[21] = dose: 200.0 mg/kg/injection, schedule: Q01DX001 (ip), vehicle: carboxymethylcellulose (CMC)

Measured: T/C

CCn1cnc2c(SC3CCCC3)ncnc21
inactive: dose: 15.0 mg/kg/injection, schedule: Q01DX015 (ip), vehicle: carboxymethylcellulose (CMC) 96 % of control | dose: 30.0 mg/kg/injection, schedule: Q01DX015 (ip), vehicle: carboxymethylcellulose (CMC) 104 % of control | dose: 62.0 mg/kg/injection, schedule: Q01DX015 (ip), vehicle: carboxymethylcellulose (CMC) 110 % of control | dose: 62.0 mg/kg/injection, schedule: Q01DX Z (ip), vehicle: carboxymethylcellulose (CMC) 95 % of control | dose: 125.0 mg/kg/injection, schedule: Q01DX015 (ip), vehicle: carboxymethylcellulose (CMC) 124 % of control | dose: 125.0 mg/kg/injection, schedule: Q01DX Z (ip), vehicle: carboxymethylcellulose (CMC) 113 % of control | dose: 500.0 mg/kg/injection, schedule: Q01DX Z (ip), vehicle: carboxymethylcellulose (CMC) 101 % of control

CCOc1ccc(-n2c(O)c(N=Nc3ccc(Br)cc3)c(=O)n(-c3ccc(OC)cc3)c2=S)cc1
inactive: dose: 50.0 mg/kg/injection, schedule: Q01DX001 (ip), vehicle: Klucel (hydroxypropylcellulose) (HPC) 94 % of control | dose: 100.0 mg/kg/injection, schedule: Q01DX001 (ip), vehicle: Klucel (hydroxypropylcellulose) (HPC) 94 % of control | dose: 200.0 mg/kg/injection, schedule: Q01DX001 (ip), vehicle: Klucel (hydroxypropylcellulose) (HPC) 94 % of control

COC(OC)C(Br)(Br)Br
inactive: [1] 96 % of control | [2] 106 % of control | [3] 100 % of control

COC(=O)c1ccc(OC)c(-c2cc(OC)ccc2C(=O)OC)c1
inactive: [4] 112 % of control | [5] 101 % of control | [6] 104 % of control

NC(=O)C1C(=O)OC2(CC2)C1c1ccccc1 (stereo not given)
inactive: [1] 86 % of control | [2] 93 % of control

Nc1c(Cl)c(Cl)nc(C(=O)O)c1Cl
inactive: dose: 6.25 mg/kg/injection, schedule: Q01DX009 (ip), vehicle: Klucel (hydroxypropylcellulose) (HPC) 98 % of control | dose: 12.5 mg/kg/injection, schedule: Q01DX009 (ip), vehicle: Klucel (hydroxypropylcellulose) (HPC) 98 % of control | dose: 50.0 mg/kg/injection, schedule: Q01DX009 (ip), vehicle: Klucel (hydroxypropylcellulose) (HPC) 100 % of control | [7] 95 % of control | [8] 97 % of control

NCCCS
inactive: [9] 96 % of control | [10] 96 % of control

C(=N\c1oc(-c2ccccc2)nc1Sc1ccccc1)/c1ccccc1
inactive: [4] 92 % of control | [5] 100 % of control | [6] 96 % of control

Cc1ccc(C(=O)C(O)c2ccc(C)cc2)cc1 (stereo not given)
inactive: [7] 98 % of control | [8] 101 % of control | [11] 98 % of control

CC(CN)OCc1ccccc1 (stereo not given)
inactive: dose: 12.5 mg/kg/injection, schedule: Q01DX009 (ip), vehicle: saline 97 % of control | dose: 25.0 mg/kg/injection, schedule: Q01DX009 (ip), vehicle: saline 99 % of control | [12] 104 % of control

CCCCCCCCc1ccc(C(C)=O)cc1
inactive: [7] 94 % of control | [13] 102 % of control | [8] 96 % of control | [14] 100 % of control | [11] 86 % of control | [15] 107 % of control

Cc1cc(C)c(NS(=O)(=O)c2ccccc2)c(C)n1
inactive: [16] 98 % of control and 100 % of control | [17] 96 % of control | [18] 91 % of control and 92 % of control | [19] 100 % of control | dose: 400.0 mg/kg/injection, schedule: Q01DX009 (ip), vehicle: saline with Tween-80 96 % of control and 97 % of control | dose: 400.0 mg/kg/injection, schedule: Q04DX003 (ip), vehicle: saline with Tween-80 96 % of control

CCSC(=S)SCC(=O)O
inactive: [17] 107 % of control | [19] 92 % of control

Cc1cc(N(CCCl)CCCl)ccc1C=Nc1cc(Cl)c(O)c(Cl)c1
inactive: [20] 96 % of control | [21] 96 % of control | dose: 400.0 mg/kg/injection, schedule: Q01DX001 (ip), vehicle: carboxymethylcellulose (CMC) 105 % of control

C[N+](C)(C)CCCNC(=O)Nc1ccc(Cl)cc1
inactive: dose: 3.13 mg/kg/injection, schedule: Q04DX002 (ip), vehicle: saline 102 % of control | dose: 6.25 mg/kg/injection, schedule: Q04DX002 (ip), vehicle: saline 117 % of control | dose: 12.5 mg/kg/injection, schedule: Q04DX002 (ip), vehicle: saline 106 % of control

COc1ccc2c(c1)CCC1=C2CCC2C1C(=O)CCC21OCCCO1 (stereo not given)
inactive: [13] 100 % of control | [14] 96 % of control | [15] 96 % of control

CC(C)C[C@H]1C(=O)N2CCC[C@H]2[C@]2(O)O[C@](NC(=O)[C@@H]3C=C4c5cccc6[nH]c(Br)c(c56)C[C@H]4N(C)C3)(C(C)C)C(=O)N12
inactive: [16] 105 % of control | [18] 106 % of control

CC(=O)Oc1cc(C)nc(OC(C)=O)c1
inactive: [1] 94 % of control | [2] 100 % of control | [3] 97 % of control

OCC1OC(n2ccc3c2ncn2ccnc32)C(O)C1O (stereo not given)
inactive: dose: 25.0 mg/kg/injection, schedule: Q01DX005 (ip), vehicle: saline 91 % of control | dose: 50.0 mg/kg/injection, schedule: Q01DX005 (ip), vehicle: saline 105 % of control | [12] 102 % of control | dose: 100.0 mg/kg/injection, schedule: Q01DX005 (ip), vehicle: saline 93 % of control | dose: 100.0 mg/kg/injection, schedule: Q01DX009 (ip), vehicle: saline 103 % of control

COc1cc(C2=N/C(=C\c3ccccc3O)C(=O)O2)cc(OC)c1OC
inactive: dose: 100.0 mg/kg/injection, schedule: Q04DX002 (ip), vehicle: saline with Tween-80 96 % of control | dose: 200.0 mg/kg/injection, schedule: Q04DX002 (ip), vehicle: saline with Tween-80 89 % of control | dose: 400.0 mg/kg/injection, schedule: Q04DX002 (ip), vehicle: saline with Tween-80 89 % of control

O=c1c(-c2ccccc2)c(-c2ccccc2)c1=O
inactive: [9] 91 % of control | [10] 96 % of control

FC(F)(F)COC(Br)CBr (stereo not given)
inactive: dose: 15.0 mg/kg/injection, schedule: Q01DX001 (ip), vehicle: carboxymethylcellulose (CMC) 101 % of control | dose: 30.0 mg/kg/injection, schedule: Q01DX001 (ip), vehicle: carboxymethylcellulose (CMC) 93 % of control | dose: 60.0 mg/kg/injection, schedule: Q01DX001 (ip), vehicle: carboxymethylcellulose (CMC) 95 % of control

CC(CC(CCC(=O)O)(c1ccccc1)c1ccccc1)N(C)C (stereo not given)
inactive: [20] 105 % of control | [21] 97 % of control

COc1ccc(NC(=O)Nc2cccc(O)c2)c(OC)c1
inactive: [7] 100 % of control | [8] 96 % of control | [11] 100 % of control
